Holding throughout (assay type): cell-based
For one assay, the system named is Ba/F3 parental cells. Kind of assay: Cell growth inhibitory activity assay (CellTiter-Glo), Ba/F3 parental cells. Conditions: Mus musculus, BaF3, 72 h, CTG cell viability, read-out: IC50 Ba/F3 BCR-ABL1 Parental. The method, then: (§1) In this assay, the Celltiter-Glo (CTG) kit provided by Promega was used, and it is a homogeneous cell viability assay method. The cell viability of cultured cells was measured by quantifying ATP. K562 cells were purchased from Nanjing Kebai, product number CBP60529; Ba/F3 parental cells were purchased from RIKEN BRC, product number RCB0805; other cells containing BCR-ABL1 WT, BCR-ABL1 T315I, BCR-ABL1 T315M, BCR-ABL1 Y253H/E255K, BCR-ABL1 E255V/T3151, BCR-ABL1 A424T, BCR-ABL1 A337V, BCR-ABL1 P465S, BCR-ABL1 V468F, and BCR-ABL1 I502L were all monoclonal engineered cell lines obtained by transducting Ba/F3 parental cells with the lentivirus plasmids containing WT or corresponding mutated BCR-ABL1.
(§2) The steps of cell viability assay are as follows: • a) Cells in logarithmic growth phase were collected. Cell suspension was prepared and the cells were counted. Concentration of the cells was calculated. • b) The cell suspension was diluted to the required concentration and then added to the middle wells of a 96-well plate, and PBS was added to the edge wells. The wells with no cells and only culture medium were used as blank controls. • c) In addition to the cell plate used for compound analysis, another 96-well plate was prepared as a T0 plate, and 3-6 blank wells and 3-6 cell wells were added. The next day, CTG was used to test the cell viability as the T0 viability value of the cells. • d) The cell plate was incubated at 37 °C in a 5% CO2 incubator overnight. • e) The next day, each concentration of a compound subjected to a gradient dilution was added, and the cell plate was incubated at 37 °C in a 5% CO2 incubator for 72 h. The wells with no compound and only 0.5% DMSO were used as positive controls for cell growth. • f) CTG reagent (CellTiter-Glo kit) was added according to the manufacturer's instructions to test the cell viability value. • g) The plate was read using Biotek cytation3.0 microplate reader and the data were exported. • h) IC50 was calculated using GraphPad Prism 7.0 software.
(§3) The IC50 (half-maximal inhibitory concentration) of the compound was obtained using the following nonlinear fitting formula: Y = Bottom + (Top−Bottom)/(1+10^(∧)((LogIC50−X)*HillSlope)) [formula] • X: Log value of the compound concentration • Y: Inhibition rate (% inhibition) • Top: Maximum response • Bottom: Baseline response • HillSlope: Slope of the curve
(§4) The formula for calculating cell inhibition rate (inhibition rate %) was: [formula]

A further assay addresses T1, Ba/F3 BCR-ABL1 WT (Homo sapiens, UniProt P00519+P11274).
T1 construct: BCR (N-terminal fusion partner of the oncoprotein); expressed in transfected cells; host or cells: Ba/F3 (lentiviral transduction, monoclonal line)
Kind of assay: Cell growth inhibitory activity assay (CellTiter-Glo), Ba/F3 BCR-ABL1 WT cells. Conditions: 72 h, CTG cell viability. The method, then: as §1, §2, §3, §4
In general terms: Cellular ATP, detected with luciferase, serves as a proxy for viable cell number.

For a further assay, the system named is K562 cells. Briefly: Cell growth inhibitory activity assay (CellTiter-Glo), K562 cells. Conditions: Homo sapiens, 72 h, CTG cell viability. Here is the method:
as §1, §2, §3, §4

The target of another assay is T2, Ba/F3 BCR-ABL1 T315I (Homo sapiens, UniProt P00519+P11274, T315I).
T2 construct: BCR (N-terminal fusion partner of the oncoprotein); expressed in transfected cells; host or cells: Ba/F3 (lentiviral transduction, monoclonal line)
Briefly: Cell growth inhibitory activity assay (CellTiter-Glo), Ba/F3 BCR-ABL1 T315I cells. Conditions: 72 h, CTG cell viability. The method, then: as §1, §2, §3, §4

As to `O=C(Nc1ccc(OC(F)(F)Cl)cc1)c1cnc(N2CC[C@@H](F)C2)c(-c2cnc3c(c2)-c2nn(-c4nccc(N5CCOCC5)n4)cc2C3)c1` [T-34, (R)-N-(4-(chlorodifluoromethoxy)phenyl)-6-(3-fluoropyrrolidin-1-yl)-5-(2-(4-morpholinopyrimidin-2-yl)-2,4-dihydropyrazolo[3',4':3,4]cyclopenta[1,2-b]pyridin-7-yl)nicotinamide], the IC50 is above 1000 nM with Ba/F3 parental cells, at most 5 nM against Ba/F3 BCR-ABL1 WT, at most 5 nM in the assay on K562 cells and at most 5 nM on Ba/F3 BCR-ABL1 T315I.

As to `C[C@@H]1CN(C)Cc2nc3cc(C(=O)Nc4ccc(OC(F)(F)Cl)cc4)cc(-c4cnc5c(c4)C(=O)N(C4CC4)C5)c3n21` [T-36, (R)-N-(4-(chlorodifluoromethoxy)phenyl)-6-(6-cyclopropyl-5-oxo-6,7-dihydro-5H-pyrrolo[3,4-b]pyridin-3-yl)-2,4-dimethyl-1,2,3,4-tetrahydrobenzo[4,5]imidazo[1,2-a]pyrazine-8-carboxamide], the IC50 is above 1000 nM in the assay with Ba/F3 parental cells, at most 5 nM on Ba/F3 BCR-ABL1 WT, at most 5 nM in the assay on K562 cells and above 1000 nM against Ba/F3 BCR-ABL1 T315I.

On to `Cn1ccc2cnc(-n3cc4c(n3)-c3cc(-c5cc(C(=O)Nc6ccc(OC(F)(F)Cl)cc6)cnc5N5CC[C@@H](F)C5)cnc3C4)nc21` [T-38, (R)-N-(4-(chlorodifluoromethoxy)phenyl)-6-(3-fluoropyrrolidin-1-yl)-5-(2-(7-methyl-7H-pyrrolo[2,3-d]pyrimidin-2-yl)-2,4-dihydropyrazolo[3',4':3,4]cyclopenta[1,2-b]pyridin-7-yl)nicotinamide], for which the IC50 was above 1000 nM with Ba/F3 parental cells, at most 5 nM at Ba/F3 BCR-ABL1 WT, at most 5 nM in the assay with K562 cells and at most 5 nM at Ba/F3 BCR-ABL1 T315I.

For the compound `C[C@@H]1CN(C)Cc2nc3cc(C(=O)Nc4ccc(OC(F)(F)Cl)cc4)cc(-c4cnc5c(c4)-c4n[nH]cc4C5)c3n21` [T-40, (R)-N-(4-(chlorodifluoromethoxy)phenyl)-6-(2,4-dihydropyrazolo[3',4':3,4]cyclopenta[1,2-b]pyridin-7-yl)-2,4-dimethyl-1,2,3,4-tetrahydrobenzo[4,5]imidazo[1,2-a]pyrazine-8-carboxamide], the IC50 in the assay with Ba/F3 parental cells was above 1000 nM; against Ba/F3 BCR-ABL1 WT, at most 5 nM; in the assay on K562 cells it was at most 5 nM; on Ba/F3 BCR-ABL1 T315I, above 1000 nM.

Consider `O=C(Nc1ccc(OC(F)(F)Cl)cc1)c1cnc(N2CC[C@@H](F)C2)c(-c2cnc3c(c2)-c2nn(-c4ncc5ccsc5n4)cc2C3)c1` [T-44, (R)-N-(4-(chlorodifluoromethoxy)phenyl)-6-(3-fluoropyrrolidin-1-yl)-5-(2-(thieno[2,3-d]pyrimidin-2-yl)-2,4-dihydropyrazolo[3',4':3,4]cyclopenta[1,2-b]pyridin-7-yl)nicotinamide], for which the IC50 in the assay on Ba/F3 parental cells is above 1000 nM; on Ba/F3 BCR-ABL1 WT, at most 5 nM; in the assay on K562 cells it was at most 5 nM; on Ba/F3 BCR-ABL1 T315I it was at most 5 nM.

As to `CCC(=O)n1cc2c(n1)-c1cc(-c3cc(C(=O)Nc4ccc(OC(F)(F)Cl)cc4)cc4nc5n(c34)[C@H](C)COC5)cnc1C2` [T-45, (R)-N-(4-(chlorodifluoromethoxy)phenyl)-4-methyl-6-(2-propionyl-2,4-dihydropyrazolo[3',4':3,4]cyclopenta[1,2-b]pyridin-7-yl)-3,4-dihydro-1H-benzo[4,5]imidazo[2,1-c][1,4]oxazine-8-carboxamide], the IC50 in the assay on Ba/F3 parental cells was above 1000 nM; against Ba/F3 BCR-ABL1 WT it was at most 5 nM; with K562 cells, at most 5 nM; against Ba/F3 BCR-ABL1 T315I, at most 5 nM.

`CC(C)C(=O)n1cc2c(n1)-c1cc(-c3cc(C(=O)Nc4ccc(OC(F)(F)Cl)cc4)cc4nc5n(c34)[C@H](C)COC5)cnc1C2` [T-46, (R)-N-(4-(chlorodifluoromethoxy)phenyl)-6-(2-isobutyryl-2,4-dihydropyrazolo[3',4':3,4]cyclopenta[1,2-b]pyridin-7-yl)-4-methyl-3,4-dihydro-1H-benzo[4,5]imidazo[2,1-c][1,4]oxazine-8-carboxamide]: the IC50 is above 1000 nM in the assay on Ba/F3 parental cells, at most 5 nM on Ba/F3 BCR-ABL1 WT, at most 5 nM in the assay on K562 cells and at most 5 nM at Ba/F3 BCR-ABL1 T315I.

Source of the values: patent publication EP4768484A1, “HETEROCYCLIC FUSED RING COMPOUND, AND COMPOSITION AND USE THEREOF” (Shenzhen TargetRx, Inc., priority 2023, dated 2025).
